Structures are written as SMILES. Counter-ions that a name gives are not always drawn. Like-named read-outs stand apart in the source and are kept apart here.

A short description of data set [1]: Water solubility of products (in words). It counts as physicochemical.
The nature of data set [2]: Hygroscopicity of products (in words). To be noted: product of the example. It counts as physicochemical. The method, then: "Non-hygroscopic" according to our invention means, that when exposed at 25° C. to an environment containing 60% humidity no observable uptake of water takes place within 3 weeks or this uptake is less than 0.1%. The salts are crystalline, they have melting point ranges that are different from those published before and their water-solubility is somewhat increased as compared with the salts prepared with the known methods.

Data set [3] in a line: Solubility tests, N-(phosphonomethyl)-glycine and its salts (Table IV). It counts as physicochemical. From the text:
Table IV illustrates some solubility values of the mono-isopropylammonium salts and di-isopropylammonium salts of N-(phosphonomethyl)-glycine on the basis of which the processes according to our invention can be reduced to practice. All solvents or solvent-mixtures can be used for our processes which show a reasonable solubility--difference between the salts and products that have to be separated.

The nature of data set [4]: Uptake of humidity in open containers at 60% humidity and 25° C. (Table VI). It counts as physicochemical. To be noted: 60% humidity. The method, then:
The samples were investigated in open containers, at 60% humidity and 25° C.

For data set [5] the following is noted: according to prior publications; cited from earlier work.

For the molecule `O=C(O)CNCP(=O)(O)O` [Example I.1, mono-isopropylammonium salt of N-(phosphonomethyl)-glycine], the “solubility in water (in words)” value in data set [1] is reported as “readily soluble”. Further, the “hygroscopicity (in words)” value in data set [2] is “not hygroscopic”.
As for `O=C(O)CNCP(=O)(O)O` [Example I.2, mono-isopropylammonium salt of N-(phosphonomethyl)-glycine], the “solubility in water (in words)” value in data set [1] is listed as “readily soluble”. In addition, in data set [2], the “hygroscopicity (in words)” value is recorded as “not hygroscopic”.
With `O=C(O)CNCP(=O)(O)O` [Example I.12, mono-isopropylammmonium salt of N-(phosphonomethyl)-glycine], in data set [1], the “solubility in water (in words)” value is “readily soluble”. Besides, the “hygroscopicity (in words)” value in data set [2] is “non-hygroscopic”.
Regarding `O=C(O)CNCP(=O)(O)O` [Example I.15, mono-isopropylammonium salt of N-(phosphonomethyl)-glycine], the “solubility in water (in words)” value in data set [1] is “readily soluble”. In addition, in data set [2], the “hygroscopicity (in words)” value is reported as “non-hygroscopic”.
For `O=C(O)CNCP(=O)(O)O` [Example I.18, mono-(dimethyl-ammonium)-salt of N-(phosphonomethyl)-glycine] the same measures were “readily soluble” and “non-hygroscopic”.
For `O=C(O)CNCP(=O)(O)O` [Example I.20, mono-isopropylammonium salt of N-(phosphonomethyl)-glycine] the same measures were “readily soluble” and “non-hygroscopic”.
With `O=C(O)CNCP(=O)(O)O` [Example I.24, mono-isopropylammonium salt of N-(phosphonomethyl)-glycine], the “solubility in water (in words)” value in data set [1] is recorded as “readily soluble”. Further, in data set [2], the “hygroscopicity (in words)” value was “non-hygroscopic”.
On to `O=C(O)CNCP(=O)(O)O` [I.7, mono-isopropylammonium salt of N-(phosphonomethyl)-glycine], for which the “hygroscopicity (in words)” value in data set [2] was “non-hygroscopic”.
Turning to `O=C(O)CNCP(=O)(O)O` [I.8, mono-isopropylammoniumsalt of N-(phosphonomethyl)-glycine], in data set [1], the “solubility in water (in words)” value was “readily soluble”. For the same molecule, the “hygroscopicity (in words)” value in data set [2] is listed as “non-hygroscopic”.
With `CP(=O)(O)CCC(N)C(=O)O` (stereo not shown) [I.9, mono-isopropylammoniumsalt of (3-amino-3-carboxy-propyl)-methane-phosphinic acid], the “hygroscopicity (in words)” value in data set [2] was “non-hygroscopic”.
The same measure, in the same setting: the value for `CP(=O)(O)CCC(N)C(=O)O` (stereo not shown) [I.10, mono-isopropylammoniumsalt of (3-amino-3-carboxy-propyl)-methane-phosphinic acid] was “non-hygroscopic”.
On to `O=C(O)CNCP(=O)(O)O` [I.13, mono-isopropylammmonium salt of N-(phosphonomethyl)-glycine], for which the “solubility in water (in words)” value in data set [1] is on record as “readily soluble”. Moreover, in data set [2], the “hygroscopicity (in words)” value is recorded as “non-hygroscopic”.
For `O=C(O)CNCP(=O)(O)O` [I.14, mono-isopropylammonium salt of N-(phosphonomethyl)-glycine], the “solubility in water (in words)” value in data set [1] was “readily soluble”. In data set [2], the “hygroscopicity (in words)” value is on record as “non-hygroscopic”.
For `O=C(O)CNCP(=O)(O)O` [I.16, mono-isopropylammonium salt of N-(phosphonomethyl)-glycine], in that order: “readily soluble” and “non-hygroscopic”.
As for `O=C(O)CNCP(=O)(O)O` [I.17, mono-isopropylammonium salt of N-(phosphonomethyl)-glycine], the “solubility in water (in words)” value in data set [1] was “readily soluble”. In data set [2], the “hygroscopicity (in words)” value was “non-hygroscopic”.
`O=C(O)CNCP(=O)(O)O` [I.19, mono-ethylammonium salt of N-(phosphonomethyl)-glycine]: the “solubility in water (in words)” value in data set [1] is reported as “readily soluble”. Also, the “hygroscopicity (in words)” value in data set [2] is on record as “non-hygroscopic”.
Turning to `O=C(O)CNCP(=O)(O)O` [I.21, mono-isopropylammonium salt of N-(phosphonomethyl)-glycine], the “solubility in water (in words)” value in data set [1] is reported as “readily soluble”. Also, the “hygroscopicity (in words)” value in data set [2] is “non-hygroscopic”.
Regarding `O=C(O)CNCP(=O)(O)O` [I.22, mono-isopropylammonium salt of N-(phosphonomethyl)-glycine], in data set [1], the “solubility in water (in words)” value was “readily soluble”. Besides, in data set [2], the “hygroscopicity (in words)” value is listed as “non-hygroscopic”.
For `O=C(O)CNCP(=O)(O)O` [I.23, mono-isoptopylammonium salt of N-(phosphonomethyl)-glycine], in that order: “readily soluble” and “non-hygroscopic”.
For `O=C(O)CNCP(=O)(O)O` [I.25, mono-isopropylammonium salt of N-(phosphonomethyl)-glycine] the same measures were “readily soluble” and “non-hygroscopic”.
For `O=C(O)CNCP(=O)(O)O` [I.26, mono-isopropylammonium salt of N-(phosphonomethyl)-glycine], the “solubility in water (in words)” value in data set [1] is reported as “readily soluble”. In data set [2], the “hygroscopicity (in words)” value was “non-hygroscopic”.
Turning to `O=C(O)CNCP(=O)(O)O` [di-IPA salt, di-(mono-isopropylamine)-salt of N-(phosphonomethyl)-glycine], the SOLUBILITY in data set [3] (benzene) was < 0.1 g/L; in data set [3] (benzyl-alcohol), 420 g/L; in data set [3] (dimethyl-formamide) it was 22 g/L; in data set [3] (isopropyl amine), < 0.1 g/L; in data set [3] (methanol), 570 g/L; in data set [3] (n-butanol), 35 g/L. In addition, the results for the SOLUBILITY in data set [3] (n-propanol) and in data set [3] (propylene-glycol) were 170 g/L and 244 g/L, respectively. The “solubility in water (in words)” value in data set [1] is “readily soluble”. Besides, the Uptake of humidity in data set [4] (1 day, listed as di-isopropyl-ammonium salt of N-(phosphonomethyl)-glycine) was 13.0%; in data set [4] (2 days, listed as di-isopropyl-ammonium salt of N-(phosphonomethyl)-glycine) it was 14.5%; in data set [4] (7 days, listed as di-isopropyl-ammonium salt of N-(phosphonomethyl)-glycine), 16.1%; in data set [4] (14 days, listed as di-isopropyl-ammonium salt of N-(phosphonomethyl)-glycine) it was 18.8%; in data set [4] (30 days, listed as di-isopropyl-ammonium salt of N-(phosphonomethyl)-glycine) it was 19.2%; in data set [4] (90 days, listed as di-isopropyl-ammonium salt of N-(phosphonomethyl)-glycine), 30.9%. The Appearance result in data set [4] (within 1 day) was “sticky and hygroscopic”; in data set [4] (within 4 days), “completely liquid”.
`O=C(O)CNCP(=O)(O)O` [glyphosate, N-(phosphonomethyl)-glycine]: the SOLUBILITY is < 0.1 g/L in data set [3] (benzene); < 0.2 g/L in data set [3] (benzyl-alcohol); < 0.2 g/L in data set [3] (dimethyl-formamide); 0.2 g/L in data set [3] (ethanol); < 0.5 g/L in data set [3] (isopropanol); < 0.3 g/L in data set [3] (methanol). Further, the SOLUBILITY in data set [3] (n-propanol) is < 0.5 g/L; in data set [3] (water) it was 12 g/L.
For the molecule `O=C(O)CNCP(=O)(O)O` [mono-IPA salt, mono-isopropylammonium salt of N-(phosphonomethyl)-glycine], the SOLUBILITY is < 0.1 g/L in data set [3] (benzene); 0.5 g/L in data set [3] (benzyl-alcohol); 1.8 g/L in data set [3] (dimethyl-formamide); < 0.1 g/L in data set [3] (isopropyl amine); 56 g/L in data set [3] (methanol); 0.1 g/L in data set [3] (n-butanol). Moreover, the SOLUBILITY in data set [3] (n-propanol) stood at 0.7 g/L; in data set [3] (propylene-glycol) it was 184.0 g/L; in data set [3] (water), 1470 g/L. For the same molecule, the “hygroscopicity (in words)” value in data set [5] is given as “extreme hygroscopic nature”. Besides, the Uptake of humidity in data set [4] (1 day), in data set [4] (2 days), in data set [4] (7 days), in data set [4] (14 days), in data set [4] (30 days) and in data set [4] (90 days) was 0.1% in each case. Moreover, in data set [4] (after 30 days), the Appearance result was “unchanged”.
For `CP(=O)(O)CCC(N)C(=O)O` (stereo not shown) [mono-ammonium salt, (3-amino-3-carboxy-propyl)-methane-phosphinic acid ammonium salt], the “hygroscopicity (in words)” value in data set [5] is given as “hygroscopic”.

These data come from patent publication US5324708A, “Non-hygroscopic monoammonium salts of phosphonic and phosphinic acids” (Aklaloida Vegyeszeti Gyar Rt., priority 1991, dated 1994).
